Data published in patent publication US12723233B2, “Media and methods for differentiating natural killer cells” (STEMCELL Technologies Canada Inc., priority 2018, dated 2026).

Tests used:
Assay type in all cases: cell-based, Human
NK cell progenitors = assay: Differentiation of cord blood CD34+-derived NK cell progenitors to CD56+ NK cells (culture days 14-28), flow cytometry and cell counts
Protocol: Human CB samples were obtained from Bloodworks NW (Seattle, WA) and CD34^+ cells were isolated using EasySep™ Human Cord Blood CD34 Positive Selection Kit II (STEMCELL Technologies, Catalogue #17896). Obtained in this way the purity of CD34^+ cells is typically higher than 90%.
The wells of a 24-well plate were coated with StemSpan™ Lymphoid Differentiation Coating Supplement (STEMCELL Technologies, Catalogue #09925) and 5000 CD34^+ cells were plated per well. The CD34^+ cells were cultured for up to 14 days in StemSpan™ SFEM II (STEMCELL Technologies, Catalogue #09605, 09655) supplemented with Lymphoid Progenitor Expansion Supplement (STEMCELL Technologies, Catalogue #09915) with media changes every 3-4 days.
After 14 days in culture, CD34^+ cell-derived NK cell progenitors were harvested. 50,000 NK cell progenitors were plated per well of an uncoated tissue culture 24-well plate. The plated NK cell progenitors were cultured for up to two weeks in NK Cell Differentiation medium (i.e StemSpan™ SFEM II (STEMCELL Technologies, Catalog # 09605, 09655) supplemented with NK Cell Differentiation Supplement (STEMCELL Technologies, Catalogue #09950), and cultured for an additional two weeks with media changes every 3-4 days. UM729 or UM171 was added to supplemented NK Cell Differentiation Medium on days 14-28. On day 28 cells were harvested for analysis or downstream applications.
Harvested cells were stained and measured by flow cytometry for expression of the NK cell lineage marker CD56. Dead cells were excluded by light scatter profile and 7-AAD or DRAQ7 staining. The results in FIGS. 1 and 2 at condition “0” (plotted on the x-axis) indicate the frequency and yield of CD56^+ NK cells that result from experiments that follows the protocol described above but in the absence of UM171 or UM729. Cell counts were obtained using the NucleoCounter NC250. Yield was calculated by dividing the resulting cell number by the number of cells initially seeded. Yields of specific cell types were obtained by multiplying total yield by cell frequency.
Cells were cultured as described in Example 1, with the exception that the up to two week culture of NK cell progenitors (i.e. culture days 14-28) in NK Cell Differentiation medium occurred in the presence or absence of UM171 or UM729.
The effects of UM171 and UM729 were tested across a range of concentrations: 0 nM, 50 nM, 100 nM, 150 nM and 200 nM for UM171; and 0 μM, 0.25 μM, 0.5 μM, 1 μM, and 2 μM for UM729.
CD34^+ CB cells were isolated and cultured as described in Example 1 up to the day 14 time point. Day 14 NK cell progenitors were further cultured in NK Cell Differentiation medium, essentially as described in Example 1, except in the absence of an added pyrimidoindole compound but in the presence or absence of 5 μM CH223191.

[1] = system: sorted day 14 populations of NK cell progenitors; assay: Differentiation of sorted day 14 NK cell progenitor subsets to CD56+ NK cells, cultured another 14 days
Source text: CD34^+ CB cells were isolated and cultured as described in Example 1 up to the day 14 time point. NK cell progenitors derived from CB CD34^+ HSPCs after 14 days of culture were stained, essentially as described in Example 3, with antibodies against markers CD5, CD7, and CD56. CD56^− cells were gated and CD7^+CD5^−, CD7^+CD5^+, CD5^−CD7^− cells were sorted using a BD FACSAria Fusion fluorescence-activated cell sorter. To investigate which subset of the day 14 population of NK cell progenitors is targeted by pyrimidoindole compounds, the CD7^+CD5^−, CD7^+CD5^+ and CD7^−CD5^− sorted populations were each cultured for another 14 days in NK Cell Differentiation medium without or with UM729. CD34^+ CB cells were isolated and cultured as described in Example 1 up to the day 14 time point. NK cell progenitors derived from CB CD34^+ HSPCs after 14 days of culture were stained, essentially as described in Example 3, with antibodies against markers CD5, CD7, CD34, and CD56. CD56^− cells were gated and […], and CD34^− CD7^+CD5^− and CD34^−CD7^+CD5^+ were sorted using a BD FACSAria Fusion fluorescence-activated cell sorter. CD7 cells were sorted as a negative control. To investigate which subset of the day 14 population of NK cell progenitors is targeted by pyrimidoindole compounds, the CD34^+CD7^+CD5^− and CD34^+CD7^+CD5^+, and CD34^−CD7^+CD5^− and CD34^− CD7^+CD5^+ sorted populations were each cultured for another 14 days in NK Cell Differentiation medium with or without UM729.

PSC-derived CD34+ cells = assay: Differentiation of PSC-derived CD34+ cells into CD5+CD7+ NK cell progenitors; details: 1 μM UM729 during days 10 to 24; PSC lines 1C, M001, H1, F016
Protocol: PSC-derived […] cells were generated as described in Example 11. The PSC-derived […] cells were cultured as described in Example 11, except the effect of the presence or absence of 1 μM UM729 on the differentiation of a population of NK cell progenitors was assessed. The cells were stained for CD5 and CD7 essentially as described in Example 3 and analyzed for frequency of CD5^+CD7^+ cells and yield of CD5^+CD7^+ cells per 5×10^4 input PSC-derived […] cells. Both the frequency (FIG. 15A) and yield (FIG. 15B) of CD5^+CD7^+ cells decreased after culturing the PSC-derived […] cells in the presence of UM729, as compared to culturing such cells in the absence of UM729. Therefore, the presence of UM729 during days 10 to 24 of culturing PSC-derived […] cells decreases the frequency and yield of CD5^+CD7^+ NK progenitor cells.

[2] = 1 μM UM729, normalized to STD cultures, n=20
[3] = tested 0, 0.25, 0.5, 1, 2 μM, days 14-28
[4] = sorted CD7+CD5+ cells, 14 days with UM729, three donors
[5] = sorted CD7+CD5− cells, 14 days with UM729, three donors
[6] = sorted CD34−CD7+CD5+ cells, 14 days with UM729
[7] = sorted CD34−CD7+CD5− cells, 14 days with UM729

COC(=O)c1ccc2c(c1)[nH]c1ncnc(NCCCN3CCCCC3)c12 [UM729, methyl 4-((3-(piperidin-1-yl)propyl)amino)-9H-pyrimido[4,5-b]indole-7-carboxylate]
Frequency of CD56+ NK cells compared to cultures lacking UM729 (NK cell progenitors; 1 μM UM729, 14 days culture of NK cell progenitors, paired t-test p=0.017): increased significantly
Yield of CD56+ NK cells per input cell compared to cultures lacking UM729 (NK cell progenitors; 1 μM UM729, 14 days culture of NK cell progenitors, paired t-test p=0.032): increased significantly
Increase of average frequency of NK cells compared to culture conditions not including a pyrimidoindole compound (NK cell progenitors; [2]): ~ 30%
Increase of average yield of NK cells compared to culture conditions not including a pyrimidoindole compound (NK cell progenitors; [2]): 2 fold
Concentration at which frequency of CD56+ NK cells appeared to be highest (NK cell progenitors; [3]): 1 µM
Concentration at which yield of CD56+ NK cells appeared to be highest (NK cell progenitors; [3]): 1 µM
Frequency of NK cells compared to culture conditions lacking UM729 [1, 4]: higher
Yield of NK cells compared to culture conditions lacking UM729 [1, 4]: higher
Frequency of NK cells compared to culture conditions lacking UM729 [1, 5]: higher
Yield of NK cells compared to culture conditions lacking UM729 [1, 5]: higher
Expansion and differentiation to NK cells ([1]; sorted CD7−CD5− cells, presence or absence of UM729): did not expand and differentiate to NK cells
Responsiveness of CD34+ NK progenitor cell subsets to UM729 ([1]; sorted CD34+CD7+CD5− and CD34+CD7+CD5+ cells, 14 days with UM729): do not appear responsive
Frequency of NK cells compared to culture conditions lacking UM729 [1, 6]: higher
Yield of NK cells compared to culture conditions lacking UM729 [1, 6]: higher
Frequency of NK cells compared to culture conditions lacking UM729 [1, 7]: higher
Yield of NK cells compared to culture conditions lacking UM729 [1, 7]: higher
Frequency of CD5+CD7+ cells compared to absence of UM729 (PSC-derived CD34+ cells): decreased
Yield of CD5+CD7+ cells per 5×10^4 input PSC-derived cells compared to absence of UM729 (PSC-derived CD34+ cells): decreased
